Assay [1] has as its target Recombinant human Furin protein (Homo sapiens, UniProt P09958). Nature of the assay: Inhibition of proteolytic enzyme (Furin) activity, fluorogenic substrate pGlu-Arg-Thr-Lys-Arg-AMC. In kind it is biochemical. As to conditions: for inhibition at 6.25 µg/mL: at 6.25 μg/ml; for inhibition at 100 µg/mL: at 100 μg/ml.
Assay [2] relates to SARS-CoV-2. Nature of the assay: Anti-viral assay against SARS-CoV-2 in Vero E6 cells (qRT-PCR viral load). In kind it is cell-based. To be noted: Ribavirin 2 μM, compared to infected cells only. In general terms: Quantitative PCR measures a nucleic acid by following its amplification.
[3] abbreviates: read-out: Percentage inhibition of Furin.
[4] abbreviates: read-out: IC50, inhibition of Furin (converted).

The values that follow come from US20220304947A1, “COMPOSITIONS AND METHODS FOR INHIBITING PROTEOLYTIC ACTIVATION OF VIRUSES” (priority 2021, published 2022).

Broadly, the inhibition is the change of the read-out against control, counted positive when it falls. Usually IC50 stands for the concentration at which inhibition is half-maximal.

Each structure is given as a SMILES string. Read-outs that look alike come from different tables or passages of the source. Residues, ends and D or L forms follow the SMILES beside them. *: point of attachment. Decanoyl = CCCCCCCCCC(=O)*; CH2Cl = ClC*

Chain of Recombinant human Furin protein (P09958 108-794): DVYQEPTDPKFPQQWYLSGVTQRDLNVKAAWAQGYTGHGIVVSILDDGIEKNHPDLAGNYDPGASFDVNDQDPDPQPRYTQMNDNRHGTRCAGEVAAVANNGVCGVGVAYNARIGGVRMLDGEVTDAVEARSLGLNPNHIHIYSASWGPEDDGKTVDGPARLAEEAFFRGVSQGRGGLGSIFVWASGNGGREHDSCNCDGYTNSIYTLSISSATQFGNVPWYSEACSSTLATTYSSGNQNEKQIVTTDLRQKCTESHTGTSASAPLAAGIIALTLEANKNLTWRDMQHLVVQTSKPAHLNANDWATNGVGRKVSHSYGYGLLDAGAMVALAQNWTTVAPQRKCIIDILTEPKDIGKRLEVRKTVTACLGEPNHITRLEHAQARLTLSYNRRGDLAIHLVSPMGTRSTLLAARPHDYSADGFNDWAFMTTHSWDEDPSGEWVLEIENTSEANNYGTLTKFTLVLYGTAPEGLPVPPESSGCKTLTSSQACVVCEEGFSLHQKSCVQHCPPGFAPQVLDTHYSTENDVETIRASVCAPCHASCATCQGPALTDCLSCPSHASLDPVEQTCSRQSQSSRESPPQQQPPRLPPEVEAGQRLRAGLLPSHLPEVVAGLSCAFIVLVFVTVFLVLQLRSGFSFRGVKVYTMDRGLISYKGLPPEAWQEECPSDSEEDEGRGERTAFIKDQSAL

As to `O=C(/C=C/c1ccc(O)cc1)CC(=O)/C=C/c1ccc(O)cc1` [BDMC, Bisdemethoxycurcumin], in assay [1] (setting [3]), the inhibition at 6.25 µg/mL was 34% and the inhibition at 100 µg/mL is 78%. In addition, the concentration for half-maximal inhibition (IC50) in assay [1] (setting [4]) was 48 µM.
On to `COc1cc(/C=C/C(=O)CC(=O)/C=C/c2ccc(O)c(OC)c2)ccc1O` [Curcumin], for which, in assay [1] (setting [3]), the inhibition at 6.25 µg/mL came to 9.64% and the inhibition at 100 µg/mL was determined as 72.6%. In assay [1] (at 25 μg/ml, read-out: Percentage inhibition of Furin), the inhibition at 25 µg/mL came to 64.2%. Also, the 50% inhibitory concentration (IC50) in assay [1] (setting [4]) is 62.6 µM.
On to `CCCCCCCCCC(=O)N[C@@H](CCCNC(=N)N)C(=O)N[C@H](C(=O)N[C@@H](CCCCN)C(=O)N[C@@H](CCCNC(=N)N)C(=O)CCl)C(C)C` [Decanoyl RVKR chloromethyl ketone] (Decanoyl-RVKR-CH2Cl), for which the IC50 in assay [1] (read-out: IC50, inhibition of Furin (positive control)) worked out at 0.0134 µM.
Consider `NC(=O)c1ncn([C@@H]2O[C@H](CO)[C@@H](O)[C@H]2O)n1` [Ribavirin], for which, in assay [2], the “reduction of viral load” value worked out at 83%.
